Laboratory results reported in patent US9415063B2, “Treatment of neurological disorders” (VELACOR THERAPEUTICS PTY LTD., priority 2007, dated 2016).
Where two headings read alike, the source gives them in different places.

Key:
[1] = test system: cultured rat hippocampal slices (CA1 region); assay: Ischaemia (oxygen glucose deprivation) induced neurodegeneration in organotypic hippocampal slice cultures; format: cell-based, Wistar rat
Procedure: (§1) Wistar rat pups (8-11 days old) were decapitated and the hippocampus rapidly dissected into ice-cold Gey's balanced salt solution supplemented with 4.5 mg/mL glucose. Transverse sections (400 μm) were cut on a McIlwain tissue chopper and placed back into ice-cold Gey's balanced salt solution. Slices were separated and plated onto Millicell CM culture inserts (4 per well) and maintained at 37° C./5% CO2 for 14 days. Maintenance medium consists of 25% heat-inactivated horse serum, 25% Hank's balanced salt solution (HBSS) and 50% minimum essential medium with added Earle's salts (MEM), supplemented with 1 mM glutamine and 4.5 mg/mL glucose. Medium was changed every 3-4 days.
(§2) Neuronal damage was assessed using ImageJ software running on a PC. Images being captured using a monochrome CCD camera and saved for offline analysis. Light transmission images were captured prior to the addition of drugs, and PI fluorescence images recorded at the end of the 24-hour recovery period. The area of the CA1 region was then determined from the transmission image. The area of PI fluorescence in the CA1 is measured using the threshold function on ImageJ, and neuronal damage expressed as the percentage of the CA1 in which PI fluorescence is detected above background (Pringle et al., 1997).
(§3) In this case the sodium selenate was made to 50 mM in SFM, then serially diluted to 25 mM, 10 mM and 1 mM, each of these used at 10 μL/mL to give final concentrations of 10 μM, 100 μM, 250 μM and 500 μM. Sodium selenite and selenomethionine as before. An experiment to assess the toxicity of sodium selenate at these higher concentrations was run in parallel with the OGD (Results FIG. 4).

[2] = test system: cultured rat hippocampal slices (CA1 region); assay: Hypoxia induced neurodegeneration in organotypic hippocampal slice cultures; format: cell-based, Wistar rat; details: 100 μM; compound present 24 hours pre-, during 3 hours of and 24 hours post-hypoxia; vs hypoxia alone
Procedure: as §1
PI fluorescence was detected using a Leica DMIL inverted microscope fitted with a rhodamine filter set. […]
Neuronal damage was assessed using ImageJ software running on a PC. […] Light transmission images were captured prior to the addition of drugs, and PI fluorescence images recorded at the end of the 24-hour recovery period. The area of the CA1 region was then determined from the transmission image. The area of PI fluorescence in the CA1 is measured using the threshold function on ImageJ, and neuronal damage expressed as the percentage of the CA1 in which PI fluorescence is detected above background (Pringle et al., 1997).

[3] = test system: cultured rat hippocampal slices; assay: Tissue culture toxicity screen in organotypic hippocampal slice cultures
Procedure: as §1, §2
A preliminary toxicity screen was carried out on the compounds to determine tissue culture exposure levels that would cause toxicity. […] Damage was measured after 24 hours and 48 hours.
as §3

[4] = test system: PTZ induced seizures; details: for Number of seizures: 30 minutes observation; for Number of seizures / Duration of seizure activity / Number of severe seizures / Latency to seizure onset: mean±SEM; for Latency to seizure onset: not significant vs vehicle
Procedure: All animal experiments were carried out according to the National Institute of Health (NIH) guidelines for the care and use of laboratory animals, and approved by the Ethical Committee of the National Laboratory Animal Center, Kuopio, Finland. Altogether 30 adult male Sprague-Dawley rats (Taconic, Denmark) weighing 200-240 g were used. Animals were housed at a standard temperature (22±1° C.) and in a light-controlled environment (lights on from 7 am to 8 pm) with ad libitum access to food and water.
Animals were grouped as follows: • 10 rats treated with vehicle (sterile water as drinking water). • 10 rats treated with sodium selenate anhydrous (120 microgram in 100 mL sterile water), p.o in drinking water for 7 days prior to PTZ injection. • 10 rats treated with sodium selenate anhydrous (1.2 milligram in 100 mL sterile water), p.o in drinking water for 7 days prior to PTZ injection. PTZ Induced Seizures
Pentylenetetrazol (PTZ) (60 mg/kg) is administered intraperitoneally (i.p., 2 mL/kg in saline) to male Sprague-Dawley rats.
Sodium selenate is administered p.o in drinking water for 7 days prior to PTZ injection. The rats have ad libitum access to water (normal daily consumption of water is 30 mL/rat/day).
The incidence of seizures (seizure and severe seizure), the latency for the first seizure appearance and the duration of seizure activity were used as indices of anticonvulsant effect. Seizure numbers were not counted if the animal died. […] Animals that died were assigned the maximum seizure duration of 30 minutes. […] Severe seizure was defined as a prolonged seizure involving stretching and twisting convulsions.
Values are presented as percentages and differences are considered to be statistically significant at the P<0.05 level. Statistical analysis was performed using StatsDirect software. Differences among groups were analyzed by 1-way-ANOVA followed by Dunnet's test (comparison to the control (=vehicle treated PTZ rats) group).

[5] = 100 μM, compound present 24 hours pre-, during 1 hour of and 24 hours post-ischaemia, vs OGD alone
[6] = 120 μg in 100 mL drinking water p.o. 7 days prior to PTZ
[7] = 1.2 mg in 100 mL drinking water p.o. 7 days prior to PTZ

O=C(O)c1ccc(C2=C3C=CC(=N3)C(c3ccc(C(=O)O)cc3)=c3ccc([nH]3)=C(c3ccc(C(=O)O)cc3)c3ccc([n-]3)C(c3ccc(C(=O)O)cc3)c3ccc2[n-]3)cc1.[Cl-].[Mn+3] (stereo not drawn) [MnTBAP, Mn(III)tetrakis(4-benzoic acid)porphyrin chloride, reference compound] was tested, and the “Neuronal damage (PI fluorescence in CA1) after OGD ischaemia” value (“Neuronal damage … after OGD ischaemia” for short) [1, 5] was “prevented” and the “Neuronal damage (PI fluorescence in CA1) after hypoxia” value [2] was “prevented”.

O=[Se](O)O [Sodium selenite, reference compound] was tested, and the “Concentration above which compound was toxic in tissue culture” value ([3]; serum free media, tested at 5 μM, 25 μM and 100 μM, damage measured after 24 hours and 48 hours) was “above 5 μM”.

With O=[Se](=O)(O)O [sodium selenate] the “Toxicity in tissue culture in the absence of hypoxia” value ([3]; 500 μM, run in parallel with the OGD experiment (FIG. 4)) was “neurotoxicity”, the Tissue culture toxicity ([3]; serum free media, any concentration tested up to 100 μM, 24 hours and 48 hours) was “not found to be toxic” and the “Neuronal damage … after OGD ischaemia” value [1, 5] was “Significant attenuation of damage”. The “Neuronal damage … after OGD ischaemia” value ([1]; 250 μM, pre, during and post-ischaemia, vs OGD alone) was “Significant attenuation of damage”, the “Neuronal damage … after OGD ischaemia” value ([1]; 500 μM, pre, during and post-ischaemia) was “significant increase in toxicity” and the Number of seizures [4, 6] was 8.5±2.1. For the same molecule, the “Duration of seizure activity” value [4, 6] was 770.9 ± 189.9 s, the “Number of severe seizures” value [4, 6] was 0.8±0.1 and the “Latency to seizure onset” value [4, 6] was 217.6 ± 117.6 s. For the same molecule, the Mortality ([4]; 120 μg in 100 mL drinking water p.o. for 7 days prior to PTZ 60 mg/kg i.p., 10 rats) was 1 animal, the Number of seizures [4, 7] was 9.9±2.2 and the “Duration of seizure activity” value [4, 7] was 808.6 ± 126.1 s. The “Number of severe seizures” value [4, 7] was 0.9±0.1, the “Latency to seizure onset” value [4, 7] was 107.6 ± 26.9 s and the “Neuronal damage (PI fluorescence in CA1) after hypoxia” value [2] was “Significant attenuation of damage”.
